Assay results taken from paper PMC12282105 (RSC Advances, 2025).

Molecular target: SARS-CoV-2 main protease (M^pro or 3CL^pro) (Severe acute respiratory syndrome coronavirus 2, UniProt P0DTD1)
Assay: Fluorogenic substrate assay of SARS-CoV-2 main protease
Format: biochemical
Conditions: compound 9 relative to compound 8

Compound: O=c1cc(-c2ccc(O)cc2)oc2cc(O[C@@H]3O[C@H](CO)[C@@H](O)[C@H](O)[C@H]3O)cc(O)c12 [Compound 9, apigenin-7-O-β-D-glucopyranoside]
- improvement in protease inhibitory activity: 15 fold
